Results taken from the CheMixHub drug solubility set.

Test: xn = mol fraction of the nth substance listed, in the solute-free solvent

COC(=O)C1=C(C)NC(C)=C(C(=O)OCC(C)C)C1c1ccccc1[N+](=O)[O-] (configuration not stated) + CCOC(C)=O + CCO
solubility (g/100 g solution)
Conditions	278.15 K	283.15 K	288.15 K	293.15 K	298.15 K	303.15 K	308.15 K	313.15 K	318.15 K
x2 = 0.05491	3.09	3.87	4.65	5.7	6.64	8.03	9.37	11.1	12.9
x2 = 0.1156	3.98	4.79	5.78	6.75	8.13	9.47	11	12.8	14.5
x2 = 0.1831	4.91	5.89	6.97	8.15	9.36	10.8	12.3	14	15.7
x2 = 0.2585	5.53	6.46	7.49	8.75	10	11.5	13	14.7	16.6
x2 = 0.3434	5.99	6.94	8.09	9.33	10.6	12	13.7	15.3	17.2
x2 = 0.4396	6.34	7.36	8.52	9.66	11.2	12.6	14.2	15.9	17.7
x2 = 0.5496	6.6	7.63	8.77	10.1	11.4	12.8	14.4	16.1	18
x2 = 0.6765	6.76	7.78	8.91	10.2	11.5	13.1	14.7	16.3	18.2
x2 = 0.8247	6.8	7.86	9.01	10.2	11.6	13.1	14.6	16.3	18.2

CN1CCN(C(=O)OC2c3nccnc3C(=O)N2c2ccc(Cl)cn2)CC1 (configuration not stated) + C1CCOC1 + O
solubility (g/100 g solution)
Conditions	x2 = 0.3	x2 = 0.4	x2 = 0.5	x2 = 0.6	x2 = 0.7	x2 = 0.8	x2 = 0.9
288.15 K	0.41	0.79	1.33	2.06	2.8	3.32	3.83
298.15 K	0.626	1.14	1.83	2.66	3.57	4.41	4.87
308.15 K	0.91	1.54	2.43	3.54	4.53	5.71	6.18
318.15 K	1.13	2	3.21	4.68	6.19	7.53	8.07
328.15 K	1.47	2.59	4.15	6.16	8.4	9.55	9.98

CCC(C(C)O)n1ncn(-c2ccc(N3CCN(c4ccc(OCC5COC(Cn6cncn6)(c6ccc(F)cc6F)C5)cc4)CC3)cc2)c1=O (configuration not stated) + CCOC(C)=O + CC(C)O
solubility (g/100 g solution)
Conditions	273.15 K	278.15 K	283.15 K	288.15 K	293.15 K	298.15 K	303.15 K	308.15 K	313.15 K
x2 = 0.07045	0.00869	0.0113	0.015	0.0192	0.0237	0.0294	0.0352	0.0423	0.0504
x2 = 0.1457	0.0114	0.0145	0.0186	0.023	0.0283	0.0344	0.0415	0.049	0.058
x2 = 0.2262	0.0148	0.0192	0.0245	0.0306	0.0374	0.0445	0.0524	0.0621	0.0721
x2 = 0.3126	0.0191	0.0242	0.0305	0.0373	0.0452	0.0542	0.0641	0.0753	0.0897
x2 = 0.4055	0.0249	0.0308	0.039	0.0482	0.0589	0.071	0.0837	0.0987	0.119
x2 = 0.5057	0.0321	0.0401	0.0493	0.0608	0.0728	0.0857	0.103	0.121	0.145
x2 = 0.6141	0.0354	0.0469	0.0581	0.0726	0.0862	0.101	0.118	0.14	0.164
x2 = 0.7318	0.0383	0.0499	0.0636	0.0793	0.0965	0.115	0.135	0.16	0.186
x2 = 0.8599	0.0405	0.0522	0.066	0.0819	0.101	0.12	0.142	0.166	0.193
